Patent US20230302131A1, “MPC INHIBITION FOR PRODUCING T-CELLS WITH A MEMORY PHENOTYPE” (UNIVERSITÉ DE LAUSANNE, priority 2020, published 2023)
“Also recorded” adds a separate entry of the source.

How the values were obtained:
[1] = test system: B16 melanoma tumors expressing HER2; test: HER2-CAR T cell production with UK5099 and adoptive transfer into mice with B16 tumors expressing HER2; type: in vivo, mouse
Description: For each retroviral preparation, 8×10^6 Phoenix ECO cells (ATCC, CRL-3214) were plated in a T150 tissue culture flask in RPMI medium supplemented with 10% FCS, 10 mM HEPES and 50 U/ml Penicillin-Streptomycin. On the next day, cells were transfected with 21 μg of the retroviral construct with Turbofect transfection reagent (Thermo Fischer Scientific), according to the manufacturer protocol. The medium was changed daily and collected at 48 h and 72 h post transfection. 48 h and 72 h virus supernatants were pooled and sedimented at 22000rcf for 2 h at 4° C. Finally, retrovirus pellets were resuspended in 2 ml of full RPMI medium and divided in 8 aliquots of 250 μl each, which were snap-frozen on dry ice and stored at −80° C.
Spleens from wild type CD45.1.2 mice were smashed on a 70 µm cell strainer. CD8 T cells were purified using the EasySep™ Mouse CD8+ T Cell Isolation Kit (StemCell) according to the manufacturer protocol. 0.5×10^6 CD8 T cells were plated in 48 well plates in 0.5 ml of complete RPMI 1640 medium supplemented with 10% FCS, antibiotics and 50 IU/ml of recombinant human IL-2, and exposed to either DMSO or 20 μM UK5099. Mouse T-cells were activated with Activator CD3/CD28 Dynabeads (Gibco) at a ratio of 2 beads per cell. Retroviral infection was conducted at 37° C. for 24 h. Untreated 48-well plates were coated for 24 h with […] of recombinant human fibronectin (Takara Clontech) at 4° C., followed by PBS 2% BSA for 30 min at RT and finally washed with PBS. One aliquot of concentrated retroviruses was plated in each fibronectin-coated 48-well plates and centrifuged for 90 min at 2000rcf and 32° C. Then, 0.5×10^6 of 24 h-activated CD8 T cells were added on top of the viruses and spun for 10 min at 400rcf and 32° C. On day 3, the medium was replaced with 10 IU/ml recombinant human IL-2, 10 ng/ml recombinant human IL-7 and 10 ng/ml recombinant human IL-15, containing either DMSO or 20 μM UK5099. Cells were then split every second day.
CD45.2 C57BL/6 mice were engrafted subcutaneously with 4×10^5 B16F10 tumors modified to express HER2. Six days later, mice were lymphodepleted with 100 mg/kg cyclophosphamide (Sigma Aldrich, C7397) injected i.p., and homogeneous groups were constituted with regard to tumor volume. T cells (5×10^6) were adoptively transferred i.v. on the next day. Tumor volumes were measured three times a week with a caliper and calculated using the formula: V=π×[d2×D]/6, where d is the minor tumor axis and D is the major tumor axis. Tumors were collected and separated from skin. Single cell suspensions were obtained with the Mouse Tumor Dissociation Kit (Miltenyi, 130-096-730) according to the manufacturer protocol. Spleen and draining lymph node were smashed on a 70 µm cell strainer. Single cell suspensions were stained with antibodies before flow cytometry analysis.
Polyclonal CD8 T cells from wild type mice were activated in the presence of DMSO or 20 μM UK5099 and then retrovirally transduced with a control blue fluorescent protein-expressing retroviral construct (BFP) or with HER2-CAR (FIG. 6A). […] More UK5099-HER2CAR T cells were engrafted in the tumor-draining lymph nodes, while CAR T cell numbers in the spleen were similar (FIGS. 6C and 6D). […] As in the spleen, more tumor-infiltrating UK5099-treated CAR T cells expressed TCF1 (FIG. 6G). […] Finally, fewer UK5099-treated CAR T cells were expressing the inhibitory molecules PD1 and TIM3, indicating a less exhausted phenotype (FIG. 6J).

B16-OVA tumor = test: B16-OVA melanoma tumor model, adoptive cell transfer of pre-treated OT1 cells; type: in vivo, mouse
Description: To assess the functional capacity of the generated memory T cells, the MPCi-treated cells were further tested in a mouse model of melanoma. Briefly, 10^5 ovalbumin-expressing B16 melanoma cells were injected subcutaneously in 6-week-old mice. At day 6 post-engraftment, when a palpable tumor was present, mice were irradiated with 5Gy. The next day 10^5 MPCi- or DMSO-treated OT1 cells were intravenously injected, followed by a subcutaneous vaccination of 50 μg CpG and 10 μg SIINFEKL (FIG. 2A). […] Confirming the Listeria data, the proportion of central memory CD8+ T cells in the spleen was increased upon MPCi treatment (FIG. 2C).
Activated CD45.1+OT-1 splenocytes were culture in vitro for 7 days as described above, collected and purified on a Ficoll gradient, allowing to separate dead and live splenocytes. Live splenocytes were counted with Trypan blue stain 0.4%. 100′000 live splenocytes were transferred into CD45.2+ host mice by tail vein injection.
B16-OVA cells were cultured in DMEM (GIBCO) with 10% FBS and 1% P/S before their subcutaneous injection into the mouse flank. Each mouse received 100′000 cells in a volume of 200 μl of PBS. 6 days after B16-OVA cells injection, tumors were measured, mice were randomized and lymphodepleted by irradiation (5 Gray). 7 days after B16-Ova injection, mice were adoptively transferred with the ACT protocol described previously. Following the ACT, mice received a vaccination of CpG (50 μg/mouse) and N4 Ova peptide (10 μg/mouse) diluted in PBS to obtain a total volume of 100 μl/mouse, injected subcutaneously at the tail base. Tumors were measured every 2 days and the tumor volume was calculated according to the formula: V=π×[d2×D]/6, where d is the minor tumor axis and D is the major tumor axis. At day 26 days post-tumor engraftment, tumors and spleens were dissected were then stained for flow cytometry analyses.
Antibody panel for intra-tumoral T cells and splenocytic T cells was: CD8-PE-texas-Red, CD45.1-Pacific blue, CD45.2-FITC, CD62L-PE-Cy7, CD44-APC-Cy7, PD1-APC, Lag3-PE, and CD127-FITC.
Antibody panel for cytokine detection contained: CD8-PE-texas-Red, CD45.1-FITC, CD45.2-APC, TNFa-Pacific blue, IFNg-PerCP-Cy5.5, IL-2-PE.

[2] = 20 μM during production, vs DMSO
[3] = co-expression of TCF1 with PD1, vs DMSO

**Q.** Which “CAR T cell numbers in the spleen” value [1, 2] does the source give for `N#CC(=Cc1cn(-c2ccccc2)c2ccccc12)C(=O)O` [UK5099, 2-cyano-3-(1-phenyl-1H-indol-3-yl)-2-propenoic acid] here?
**A.** Its value is “similar”.

**Q.** What about the “HER2CAR T cells engrafted in the tumor-draining lymph nodes” value [1, 2] of the same compound?
**A.** Its value is “More”.

**Q.** And the “percentage of splenic HER2CAR T cells expressing TCF1” value [1, 2]?
**A.** The value was “higher percentage”.

**Q.** What about the “tumor growth after HER2CAR T cell ACT” value ([1]; CAR T cells produced with 20 μM UK5099, 5×10^6 T cells i.v.) of the same compound?
**A.** Its value is “significantly suppress tumor growth”.

**Q.** And the “progenitor exhausted T cells (TCF1-positive) among CAR T cells in the tumor” value [1, 3]?
**A.** The value was “more”.

**Q.** What about the “terminally differentiated exhausted T cells (TCF1-negative) among CAR T cells in the tumor” value [1, 3] of the same compound?
**A.** Its value is “less”.

**Q.** What about the “CAR T cells expressing the inhibitory molecules PD1 and TIM3” value ([1]; in the tumor, vs DMSO) of the same compound?
**A.** Its value is “fewer”.

**Q.** And the “CAR T cells in tumors” value ([1]; per mg of tumor, vs DMSO)?
**A.** The value was “significantly more”.

**Q.** What about the “tumor-infiltrating CAR T cells expressing TCF1” value ([1]; vs DMSO) of the same compound?
**A.** Its value is “more”.

**Q.** What about the “proportion of central memory CD8+ T cells in the spleen” value (B16-OVA tumor; CD44 and CD62L double positive of transferred cells) of the same compound?
**A.** The value was “increased”.

**Q.** And the B16 tumor growth (B16-OVA tumor; mice that received 10^5 pre-treated OT1 CD8+ T cells, compared to DMSO, listed as MPCi)?
**A.** Its B16 tumor growth is “enhanced anti-tumoral activity; also recorded: strongly reduced”.

**Q.** What about the “expression of PD-1 in T cells infiltrating the tumor” value (B16-OVA tumor; transferred CD8+CD45.1+ population in the tumor, vs DMSO) of the same compound?
**A.** Its value is “significantly decreased”.

**Q.** What about the “cells double positive for IFNγ and TNF upon restimulation” value (B16-OVA tumor; tumor single cell suspension restimulated with SIINFEKL for 4 h) of the same compound?
**A.** Its value is “higher proportion”.

**Q.** What about the “percentage of transferred cells out of total CD8+ T cells in spleen and tumor” value (B16-OVA tumor; upon dissection, data not shown) of the same compound?
**A.** Its value is “not strikingly different”.
